Values of other authors as cited in patent US11382865B2, “Pharmaceutical preparation and method for its manufacture” (BAYER ANIMAL HEALTH GMBH, priority 2016, dated 2022).

Tests used:
[1] = test system: parasitic worms (helminths); settings: veterinary parasiticide

Solubility in organic solvents (organic solvents): readily soluble | Solubility in water (water): practically insoluble
Compound: CO/N=C1\C[C@]2(C[C@@H]3C[C@@H](C/C=C(\C)C[C@@H](C)/C=C/C=C4\CO[C@@H]5[C@H](O)C(C)=C[C@@H](C(=O)O3)[C@]45O)O2)O[C@H](/C(C)=C/C(C)C)[C@H]1C [Moxidectin]
Dose at which active [1]: < 25 μg/kg body weight
